The values below come from patent US20230255939A1, “Antimicrobial Agent for Non-Human Animal” (ISHIHARA SANGYO KAISHA, LTD, priority 2020, published 2023).

Each structure is given as a SMILES string. Converted amounts (≈) assume the structure as drawn. Read-outs that look alike come from different tables or passages of the source.

Common to all, as to assay type: cell-based
Assay [1] deals with Malassezia pachydermatis (IFM56528 strain). Kind of assay: Antimicrobial activity test: colony formation inhibition after 1 minute contact (Test Examples 1 and 2). The following applies: M. pachydermatis IFM56528, final concentration 500 ppm, then culturing at 32° C. for 72 hours, read-out: Colony formation inhibition rate (%). The procedure: Test microbial strain: Malassezia pachydermatis (IFM56528 strain, strain obtained from Chiba University) The Malassezia microbe (Malassezia pachydermatis) cultured for 5 to 7 days in a Sabouraud medium (1% peptone, 4% dextrin, 1.5% agar) supplemented with 0.5% of Tween 40 (polyoxyethylene sorbitan monopalmitate: manufactured by Kanto Chemical Co., Inc.) was suspended in physiological saline and a suspension thereof was prepared in such a way as to have an absorbance of 0.25 at 550 nm. […] Colony formation inhibition rate (%) = [(number of colonies in non-agent treated plot - number of colonies in inventive plot)/number of colonies in non-agent treated plot] × 100 Test compound: Compound No. 1 (final concentration of 500 ppm) Test microbial strains: Malassezia pachydermatis (IFM56528 strain), M. furfur (IMF55951 strain), M. sympodialis (IMF48588 strain), M. globosa (IMF51946 strain), and M. restricta (IMF55992 strain) The colony formation inhibition rate for each of the test strains was determined by the same method as in Test Example 1.

Assay [2] has as its system Microsporum canis (TIMM20080 strain). The assay can be described thus: Antimicrobial activity test, minimum inhibitory concentration (Test Example 4). The following applies: Sabouraud media, 28° C. for 72 hours. The procedure:
Test Example 4: Antimicrobial Activity Test Test Compound: Compound No. 1
Test Microbial Strain: Microsporum Canis (TIMM20080 Strain)
The microbial strain was cultured in a Sabouraud medium containing 500 µg/mL of cycloheximide and 50 µg/mL of chloramphenicol at 28° C. for 8 days, then spores were collected in physiological saline containing Tween80 (0.05% (v/v)), this was filtered through a cell strainer (φ40 µm), the spores were recovered from the filtrate by centrifugation (3500 rpm, 5 minutes) and washed twice with physiological saline, and then a spore suspension was prepared (1 × 10^7 spores/mL). 10 µL of the spore suspension was inoculated into Sabouraud media to which compound No. 1 dissolved in DMSO was added to have various concentrations. After culturing at 28° C. for 72 hours, the amount of microbial growth was investigated, and the minimum inhibitory concentration was determined.

In assay [3] the test system is Microsporum canis (NBRC7863). Kind of assay: Antimicrobial activity test, minimum inhibitory concentration (Test Example 5). The note with it: Sabouraud media, 25° C. for 120 hours. The procedure: Test Example 5: Antimicrobial Activity Test Test Compound: Compound No. 6 Test Microbial Strain: Microsporum Canis (NBRC7863) The strain was cultured in a Sabouraud medium and then suspended in PBS containing Tween80 (1% (V/V)), the resulting suspension was filtered through a cell strainer (φ40 µm), spores were recovered from the filtrate by centrifugation (3500 rpm, 5 minutes) and washed twice with physiological saline, and then a spore suspension was prepared (1 × 10^6 spores/mL). 50 µL of the spore suspension was inoculated into Sabouraud media to which compound No. 6 dissolved in DMSO was added to have various concentrations. After culturing at 25° C. for 120 hours, the presence or absence of microbial growth was investigated, and the minimum inhibitory concentration was determined.

The subject of assay [4] is Staphylococcus pseudointermedius (JCM 17571). Kind of assay: Antimicrobial activity test, minimum bactericidal concentration after 1 minute contact (Test Example 6). The following applies: JCM17571, S. pseudintermedius JCM 17571, then LB medium 30° C. for 72 hours, read-out: Minimum bactericidal concentration (MBC100). The procedure: Test Example 6: Antimicrobial Activity test Test Compound: Compound No. 6 Test Microbial Strain: Staphylococcus Pseudointermedius (JCM 17571) The staphylococcus (Staphylococcus pseudointermedius) cultured for 24 hours on a Luria Broth (LB) agar medium plate (peptone, yeast extract, sodium chloride, agar, Invitrogen) was suspended in physiological saline, and a suspension thereof was prepared in such a way as to have an absorbance of 0.025 at 600 nm. Thereto, the test compound dissolved in DMSO was added in such a way as to provide a final concentration of 200, 100, 50, or 25 ppm, and after 1 minute, 10 µL of the suspension and 10 mL of physiological saline were placed in a syringe and stirred, and the syringe was connected to a 37 mm Quality Monitor (manufactured by Pall Corporation) followed by filtration and washing twice with 10 mL of physiological saline. The membrane filter was impregnated as it was with an LB medium and subjected to culturing at 30° C. for 72 hours, the presence or absence of colony growth was investigated, and the minimum bactericidal concentration (MBC100) was determined.

The test system of assay [5] is Microsporum canis (IFM63627). The assay can be described thus: Antifungal activity test, minimum fungicidal concentration on spores (Test Example 8). The following applies: read-out: Minimum fungicidal concentration (MFC100). The procedure: Test Example 8: Antifungal Activity Test
Test Compound: Compound No. 6
Test Microbial Strain: Microsporum Canis (IFM63627)
Microsporum canis was cultured at 32° C. for 168 hours in a ⅒ Sabouraud medium to form spores, then 10 mL of physiological saline (Otsuka Normal Saline; containing 9 g of sodium chloride in 1000 mL) was added directly onto the medium, and the surface was rubbed using a disposable loop (type 1 (1 µL)) to recover a spore suspension containing hyphae. The spore suspension containing hyphae was filtered through a cell strainer (φ40 µm). The spores were recovered from the filtrate by centrifugation (3500 rpm, 5 minutes) and washed twice with physiological saline, and then a spore suspension was prepared (1 × 10^7 spores/mL). 10 µL of the spore suspension was inoculated into 90 µL of physiological saline to which compound No. 6 dissolved in DMSO was added to have a predetermined concentration. […] The 10-µL spore suspension was spotted onto a Sabouraud medium and subjected to culturing at 32° C. for 72 hours, the presence or absence of colony growth was investigated, and the minimum fungicidal concentration (MFC100) was determined.

On to `Cc1ccc(-c2nc(C#N)[nH]c2Cl)cc1` [Compound No. 1, 5-Chloro-4-(4-methylphenyl)-1H-imidazole-2-carbonitrile], for which the inhibition at 500 ppm in assay [1] was determined as 100%. This compound also came in with an MIC in assay [2] of 10 µg/mL (≈ 45.9 µM).
`Cc1ccc(-c2nc(C#N)[nH]c2Cl)cc1Cl` [Compound No. 6, 5-chloro-4-(3-chloro-4-methylphenyl)-1H-imidazole-2-carbonitrile]: the MIC in assay [3] came to 125 µg/mL (≈ 496 µM). In addition, the MBC in assay [4] amounted to 50 µg/mL (≈ 198 µM). In addition, the MFC in assay [5] (treatment time 24 Hours) was 50 µg/mL (≈ 198 µM); in assay [5] (treatment time 96 Hours), 10 µg/mL (≈ 39.7 µM).
